According to US9315499B2, “Cytomegalovirus inhibitor compounds” (Boehringer Ingelheim International GmbH, priority 2012, dated 2016):

Target: HCMV polymerase (UL54) (Human cytomegalovirus (strain AD169) (HHV-5) (Human herpesvirus 5), UniProt P08546)
Assay: biochemical
Details: LANCE TR-FRET, purified recombinant GST-UL54; read-out: Example C (IC50 nM)
Procedure: HCMV Polymerase LANCE TR-FRET Assay
This non-radiometric assay determines the enzymatic activity of purified recombinant HCMV polymerase (UL54) using a Digoxigenin-labeled oligonucleotide priming a heteropolymeric template. The enzymatic activity is determined by incorporating Biotin-dUTP in the nascent complementary strand. The signal is generated by Fluorescence Resonance Energy Transfer from the donor (Anti-Digoxigenin-Europium Chelate binding with the primer) to the acceptor Streptavidin-AlloPhycoCyanin (SA-APC) binding to the biotin of the labeled nucleotides incorporated in proximity.
Serial dilutions of the DMSO stock compound solution are performed using DMSO in columns 2-11 and 14-23. DMSO alone is present in columns 1, 12, 13 and 24. Three μL of the DMSO serial dilutions is transferred and diluted using 21 μL of compound dilution buffer (10 mM Hepes pH 7.5, 25 mM KCl, 5 mM MgCl2, 1 mM TCEP) to obtain 12.5% DMSO. 4 μL per well of the 12.5% DMSO serial dilution compound solution is added to the assay plate. The plate is centrifuged at 200×g for 30 sec. […]
To perform the assay, 3 μL of the enzyme solution is added to columns 2-12 and 14-24. […] The signal is read on the Envision plate reader (Perkin-Elmer) or equivalent.

| SMILES | IC50 |
| --- | --- |
| Nc1c(Br)cnc2c1cc(C(=O)NCc1ccc(Cl)cc1)c(=O)n2CC(=O)N1CCC(CO)C1 (centres unmarked) [Compound 6022] | 83 nM |
| O=C(NCc1ccc(Cl)cc1)c1cc2cccnc2n(CC(=O)N2CCC(C(=O)O)C2)c1=O (centres unmarked) [Compound 1029] | 6200 nM |
